Data as given in patent US9682925B2, “Cyclopropaneamine compound” (TAKEDA PHARMACEUTICAL COMPANY LIMITED, priority 2011, dated 2017).
Structures can show the parent of a compound that is named as a salt.

Key:
Format in all cases: biochemical
MAO-A = target: T1, MAO-A (Homo sapiens, UniProt P21397); test: Measurement of MAO-A inhibitory activity (MAO-Glo Assay)
T1 construct: purchased Sigma-Aldrich Co. LLC
T1 sequence (P21397 1-527): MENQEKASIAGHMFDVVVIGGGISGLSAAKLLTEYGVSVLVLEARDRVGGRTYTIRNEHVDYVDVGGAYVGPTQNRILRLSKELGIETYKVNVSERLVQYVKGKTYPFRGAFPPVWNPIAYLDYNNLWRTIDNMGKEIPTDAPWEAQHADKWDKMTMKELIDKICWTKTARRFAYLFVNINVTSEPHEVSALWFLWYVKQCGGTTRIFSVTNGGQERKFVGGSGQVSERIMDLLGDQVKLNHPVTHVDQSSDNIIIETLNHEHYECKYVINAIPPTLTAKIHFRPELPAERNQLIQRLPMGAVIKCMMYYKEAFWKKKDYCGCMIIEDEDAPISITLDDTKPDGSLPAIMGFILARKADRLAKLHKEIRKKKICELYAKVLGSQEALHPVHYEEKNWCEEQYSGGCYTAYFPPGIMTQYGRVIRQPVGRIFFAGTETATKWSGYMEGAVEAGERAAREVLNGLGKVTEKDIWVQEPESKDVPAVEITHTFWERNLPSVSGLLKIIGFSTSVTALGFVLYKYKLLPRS
Summary of the method: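 MAO-A (400 ng) was pre-incubated with compound 10 min at room temperature in 100 mM HEPES pH 7.5, 5% glycerol, then MAO substrate (160 μM stock) added for 60 min. Luciferin detection reagent, 20 min, luminescence; % inhibition against no-compound control minus no-enzyme blank.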

human LSD1(171-852) = target: T2, human LSD1(171-852) (Homo sapiens, UniProt O60341); test: Measurement of LSD1 inhibitory activity (time-resolved fluorescence, biotin-histone H3 mono methylated K4 peptide); settings: read-out: LSD1 IC50 value
T2 construct: to give hLSD1(171-852) purified product; made in house; host or cells: Escherichia coli C43(DE3) pLysS

MAO-B = target: T3, MAO-B (Homo sapiens, UniProt P27338); test: Measurement of MAO-B inhibitory activity (MAO-Glo Assay)
T3 construct: purchased Sigma-Aldrich Co. LLC
T3 sequence (P27338 1-520): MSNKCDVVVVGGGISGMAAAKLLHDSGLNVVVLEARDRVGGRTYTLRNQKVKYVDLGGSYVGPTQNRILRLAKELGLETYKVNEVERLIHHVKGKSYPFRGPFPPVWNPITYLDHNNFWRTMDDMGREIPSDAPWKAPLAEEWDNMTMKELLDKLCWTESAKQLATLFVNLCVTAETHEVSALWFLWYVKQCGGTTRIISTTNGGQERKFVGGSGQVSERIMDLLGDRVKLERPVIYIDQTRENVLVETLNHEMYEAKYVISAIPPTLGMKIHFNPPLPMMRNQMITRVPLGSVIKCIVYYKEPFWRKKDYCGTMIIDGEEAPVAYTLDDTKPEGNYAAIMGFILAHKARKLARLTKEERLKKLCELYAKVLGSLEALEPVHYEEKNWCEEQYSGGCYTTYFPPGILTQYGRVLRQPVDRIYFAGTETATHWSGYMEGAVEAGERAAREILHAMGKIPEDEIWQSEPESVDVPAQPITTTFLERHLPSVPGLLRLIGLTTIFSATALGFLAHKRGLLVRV
Summary of the method: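 Percent inhibition was calculated from luciferin-based luminescence, corrected with a blank lacking enzyme and a control lacking compound. The reaction ran 60 min at room temperature after adding MAO substrate (16 µM as added). This followed a 10 min compound–enzyme preincubation in HEPES pH 7.5 buffer.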

Cc1ccc(C)c(C(=O)Nc2ccc([C@@H]3C[C@H]3NCC3CC3)cc2)c1 (relative stereo) [Example 106, N-(4-{trans-2-[(cyclopropylmethyl)amino]cyclopropyl}phenyl)-2,5-dimethylbenzamide hydrochloride]
IC50 (MAO-A): > 10 µM | IC50 (human LSD1(171-852)): < 0.1 µM | IC50 (MAO-B): > 10 µM

CS(=O)(=O)c1cccc(C(=O)Nc2ccc([C@@H]3C[C@H]3NCC3CC3)cc2)c1 (relative stereo) [Example 91, N-(4-{trans-2-[(cyclopropylmethyl)amino]cyclopropyl}-phenyl)-3-(methylsulfonyl)-benzamide]
IC50 (MAO-A): > 10 µM | IC50 (human LSD1(171-852)): < 0.1 µM | IC50 (MAO-B): > 10 µM

O=C(Nc1ccc([C@@H]2C[C@H]2NCc2ccccc2)cc1)c1cccc(Oc2ccccc2)c1 (relative stereo) [Example 10, N-{4-[trans-2-(benzylamino)cyclopropyl]phenyl}-3-phenoxybenzamide]
IC50 (MAO-A): 3.3 µM | IC50 (human LSD1(171-852)): 0.14 µM | IC50 (MAO-B): > 10 µM

O=C(Nc1ccc([C@@H]2C[C@H]2NCC2CC2)cc1)c1cc(-c2ccccc2)no1 (relative stereo) [Example 133, N-(4-{trans-2-[(cyclopropyl-methyl)amino]-cyclopropyl}-phenyl)-3-phenyl-1,2-oxazole-5-carboxamide]
IC50 (MAO-A): > 10 µM | IC50 (human LSD1(171-852)): < 0.1 µM | IC50 (MAO-B): > 10 µM

O=C(Nc1ccc([C@@H]2C[C@H]2NCc2cccnc2)cc1)c1ccccc1 (relative stereo) [Example 12, N-(4-{trans-2-[(pyridin-3-ylmethyl)amino]cyclopropyl}phenyl)-benzamide bis(trifluoroacetate)]
IC50 (MAO-A): 4.7 µM | IC50 (human LSD1(171-852)): < 0.1 µM | IC50 (MAO-B): > 10 µM

O=C(Nc1ccc([C@@H]2C[C@H]2NC2CCC(F)(F)CC2)cc1)c1cccc(C(F)(F)F)c1 (relative stereo) [Example 154, N-(4-{trans-2-[(4,4-difluorocyclohexyl)amino]cyclopropyl}phenyl)-3-(trifluoromethyl)benzamide hydrochloride]
IC50 (MAO-A): > 10 µM | IC50 (human LSD1(171-852)): < 0.1 µM | IC50 (MAO-B): > 10 µM

O=C(Nc1ccc([C@@H]2C[C@H]2NC2CCN(c3ccccc3)CC2)cc1)c1cccc(C(F)(F)F)c1 (relative stereo) [Example 75, N-(4-{trans-2-[(1-phenylpiperidin-4-yl)amino]cyclopropyl}phenyl)-3-(trifluoromethyl)benzamide dihydrochloride]
IC50 (MAO-A): > 10 µM | IC50 (human LSD1(171-852)): < 0.1 µM | IC50 (MAO-B): > 10 µM

O=C(Nc1ccc([C@@H]2C[C@H]2NC2CCN(Cc3ccccc3)CC2)cc1)c1cccc(C(F)(F)F)c1 (relative stereo) [Example 74, N-(4-{trans-2-[(1-benzylpiperidin-4-yl)amino]cyclopropyl}phenyl)-3-(trifluoromethyl)benzamide dihydrochloride]
IC50 (MAO-A): > 10 µM | IC50 (human LSD1(171-852)): < 0.1 µM | IC50 (MAO-B): > 10 µM

COCC(C)N[C@@H]1C[C@H]1c1ccc(NC(=O)c2ccc(-c3ccccc3)cc2)cc1 (relative stereo) [Example 48, N-(4-{trans-2-[(2-methoxy-1-methyl-ethyl)amino]cyclo-propyl}phenyl)-biphenyl-4-carboxamide]
IC50 (MAO-A): 4.3 µM | IC50 (human LSD1(171-852)): < 0.1 µM | IC50 (MAO-B): 3.8 µM

CS(=O)(=O)Nc1cccc(C(=O)Nc2ccc([C@@H]3C[C@H]3NCC3CC3)cc2)c1 (relative stereo) [Example 136, N-(4-{trans-2-[(cyclopropylmethyl)amino]cyclopropyl}phenyl)-3-[(methylsulfonyl)amino]benzamide hydrochloride]
IC50 (MAO-A): > 10 µM | IC50 (human LSD1(171-852)): < 0.1 µM | IC50 (MAO-B): > 10 µM

O=C(Nc1ccc([C@@H]2C[C@H]2NCC2CC2)cc1)c1ccc(-n2cccn2)cc1 (relative stereo) [Example 94, N-(4-{trans-2-[(cyclopropylmethyl)-amino]cyclopropyl}-phenyl)-4-(1H-pyrazol-1-yl)benzamide]
IC50 (MAO-A): > 10 µM | IC50 (human LSD1(171-852)): < 0.1 µM | IC50 (MAO-B): > 10 µM

O=C(Nc1ccc([C@@H]2C[C@H]2NCC2CC2)cc1)c1cnn(-c2ccccc2)c1 (relative stereo) [Example 124, N-(4-{trans-2-[(cyclopropyl-methyl)amino]cyclo-propyl}phenyl)-1-phenyl-1H-pyrazole-4-carboxamide]
IC50 (MAO-A): > 10 µM | IC50 (human LSD1(171-852)): < 0.1 µM | IC50 (MAO-B): > 10 µM

CN1CCC(N[C@@H]2C[C@H]2c2ccc(NC(=O)c3cccc(Br)c3)cc2)CC1 (relative stereo) [Example 5, 3-bromo-N-(4-{trans-2-[(1-methylpiperidin-4-yl)amino]cyclopropyl}phenyl)benzamide]
IC50 (MAO-A): 7.7 µM | IC50 (human LSD1(171-852)): < 0.1 µM | IC50 (MAO-B): > 10 µM

CC(C)(C)CN[C@@H]1C[C@H]1c1ccc(NC(=O)c2ccccc2)cc1 (relative stereo) [Example 17, N-(4-{trans-2-[(2,2-dimethyl-propyl)amino]-cyclopropyl)-phenyl)benzamide]
IC50 (MAO-A): > 10 µM | IC50 (human LSD1(171-852)): < 0.1 µM | IC50 (MAO-B): > 10 µM

O=C(Nc1ccc([C@@H]2C[C@H]2NCc2ccc3cccnc3n2)cc1)c1cccc(C(F)(F)F)c1 (relative stereo) [Example 162, N-(4-{trans-2-[(1,8-naphthyridin-2-ylmethyl)amino]cyclopropyl}phenyl)-3-(trifluoromethyl)benzamide hydrochloride]
IC50 (MAO-A): 2.1 µM | IC50 (human LSD1(171-852)): < 0.1 µM | IC50 (MAO-B): > 10 µM

O=C(Nc1ccc([C@@H]2C[C@H]2NCC2CC2)cc1)c1ccc2[nH]ncc2c1 (relative stereo) [Example 99, N-(4-{trans-2-[(cyclopropylmethyl)-amino]cyclopropyl}-phenyl)-1H-indazole-5-carboxamide]
IC50 (MAO-A): > 10 µM | IC50 (human LSD1(171-852)): < 0.1 µM | IC50 (MAO-B): > 10 µM

O=C(Nc1ccc([C@@H]2C[C@H]2NCc2ccc(Cl)c(Cl)c2)cc1)c1ccc(-c2ccccc2)cc1 (relative stereo) [Example 53, N-(4-{trans-2-[(3,4-dichloro-benzyl)amino]-cyclopropyl}phenyl)-biphenyl-4-carboxamide]
IC50 (MAO-A): 4 µM | IC50 (human LSD1(171-852)): 0.23 µM | IC50 (MAO-B): 3.4 µM

CN1CCC(N[C@H]2C[C@@H]2c2ccc(NC(=O)c3cccc(C(F)(F)F)c3)cc2)CC1 (single isomer, unassigned) [Example 152, N-(4-{(1R,2S) or (1S,2R)-2-[(1-methylpiperidin-4-yl)amino]cyclopropyl}phenyl)-3-(trifluoromethyl)benzamide dihydrochloride]
IC50 (MAO-A): > 10 µM | IC50 (human LSD1(171-852)): < 0.1 µM | IC50 (MAO-B): > 10 µM

O=C(Nc1ccc([C@@H]2C[C@H]2NCc2ccccc2)cc1)c1cccc(Br)c1 (relative stereo) [Example 3, N-{4-[trans-2-(benzylamino)cyclopropyl]phenyl}-3-bromobenzamide]
IC50 (MAO-A): 4.4 µM | IC50 (human LSD1(171-852)): < 0.1 µM | IC50 (MAO-B): 9 µM

O=C(Nc1ccc([C@@H]2C[C@H]2NCC2CC2)cc1)c1ccccc1 (relative stereo) [Example 140, N-(4-{trans-2-[(cyclopropylmethyl)amino]cyclopropyl}phenyl)benzamide hydrochloride]
IC50 (MAO-A): > 10 µM | IC50 (human LSD1(171-852)): < 0.1 µM | IC50 (MAO-B): > 10 µM

NCCN[C@@H]1C[C@H]1c1ccc(NC(=O)c2ccc(-c3ccccc3)cc2)cc1 (relative stereo) [Example 44, N-(4-{trans-2-[(2-aminoethyl)-amino]cyclo-propyl}phenyl)-biphenyl-4-carboxamide]
IC50 (MAO-A): > 10 µM | IC50 (human LSD1(171-852)): < 0.1 µM | IC50 (MAO-B): 9.3 µM

O=C(Nc1ccc([C@@H]2C[C@H]2NCC2CC2)cc1)c1ccc(-n2ccnc2)cc1 (relative stereo) [Example 92, N-(4-{trans-2-[(cyclopropylmethyl)-amino]cyclopropyl}-phenyl)-4-(1H-imidazol-1-yl)benzamide]
IC50 (MAO-A): 7.9 µM | IC50 (human LSD1(171-852)): < 0.1 µM | IC50 (MAO-B): > 10 µM

O=C(Nc1ccc([C@@H]2C[C@H]2NCC2CC2)cc1)c1ccc(-c2nnn[nH]2)cc1 (relative stereo) [Example 102, N-(4-{trans-2-[(cyclopropylmethyl)-amino]cyclopropyl}-phenyl)-4-(1H-tetrazol-5-yl)benzamide]
IC50 (MAO-A): > 10 µM | IC50 (human LSD1(171-852)): 0.2 µM | IC50 (MAO-B): > 10 µM
